# From PMC4433340 (PLoS Neglected Tropical Diseases, 2015)
# Assays:
# [1] = system: NF-κB pathway (p-IKK, p-IκB) in T. cruzi-infected EA.hy926 cells; assay: IKK and IκB phosphorylation by Western blot; assay type: cell-based, human; settings: 5 μM simvastatin or 20 μM benznidazole, T. cruzi 1 hour
# Method: 5x10^5 endothelial cells were rinsed once with PBS and scraped. Proteins were extracted into 100 μL RIPA buffer plus a protease and phosphatase inhibitor cocktail (Radio-Immunoprecipitation Assay; Millipore Corporation, USA) at 4°C. Total protein was quantified with the Lowry assay. Samples in loading buffer (10% SDS, 50% glycerol, 0.5 M Tris, 0.1% bromophenol blue, and 1 M dithiothreitol, pH 6.8) were electrophoretically separated by 10% SDS-PAGE and transferred to a nitrocellulose membrane. Nitrocellulose membranes were incubated with blocking solution (5% w/v nonfat dry milk, 0.1% Tween-20 in Tris-buffered saline) at room temperature for 1 hour. Then, the membranes were incubated at 4°C overnight with 1 mL solution of primary antibodies against E-selectin (1:1000) and α-Tubulin (1:10.000) from Sigma-Aldrich, ICAM-1 (1:2000) and VCAM-1 (1:1000) from Abcam, 7 ml solution of p-IKK (1:1000), IKK (1:1000), p-IκB (1:1000) and IκB (1:1000) from Cell signaling (Cell Signaling Technologies, USA). Bound antibodies were detected with horseradish peroxidase-conjugated secondary antibodies and visualized by Lumminata forte (Millipore). The nitrocellulose was stripped between reprobes using Mild stripping (Millipore) for 10 minutes. Developed films were scanned, and band densitometry was analyzed using ImageJ software (ImageJ 1.47v).
# [2] = system: HL-60 cells; assay: Cell viability by MTT reduction assay, HL-60 cells; assay type: cell-based; settings: Homo sapiens, 24 hours incubation, mean ± SD, n = 3, read-out: IC50, cellular viability, HL-60 cells
# Method: HL-60 cells (ATCC CCL240) are a promyelocytic cell line that was derived by S.J. Collins et al. Peripheral blood leukocytes were obtained by leukapheresis from a person with acute promyelocytic leukemia. The cell line was cultured with Iscove's Modified Dulbecco's Medium plus 10% v/v FBS.
# (§1) The effect of the drug on all cells and parasite viability was evaluated through the tetrazolium salt (MTT, Sigma-Aldrich) reduction assay as described. […] Cultures were incubated for 24 hours before adding MTT for 4 hours. The plates were incubated overnight with 10% SDS w/v in 0.01 M HCl at 37°C, and optical density (OD) was determined using a microplate reader (Labsystems Multiskan MS, Finland) at 570 nm. Under these conditions, the OD was directly proportional to viable cell number per well. All of the experiments were performed at least three times, and the data are shown as the means and their standard deviations from triplicate cultures.
# [3] = system: intracellular T. cruzi amastigotes in EA.hy926 cells; assay: DAPI staining and intracellular amastigote quantification; assay type: cell-based, Trypanosoma cruzi; settings: 5 μM simvastatin or 20 μM benznidazole for 24 hours before infection; counted after 72 hours
# Method: 2x10^4 EA.hy926 cells/slide were seeded in Lab-Tek II Chamber Slides for 12 h. […] Then, the cells were washed and fixed in cold methanol (70%) overnight. The fixed cells were then washed, and 1 mL PBS (pH 7.4) was added. DNA was stained with DAPI (NucBlue; Molecular Probes, USA) following the manufacturer's instructions. The cells were photographed using a Nikon Eclipse 400 fluorescence microscope using 358 nm (excitation) and 461 nm (emission) wavelengths. In total, ten pictures were obtained per well, and each picture was counted using MATLAB software.
# In Fig 3, total E-selectin (Fig 3A), ICAM-1 (Fig 3B) and VCAM-1 (Fig 3C) protein expression analyses are shown. […] To evaluate parasite load, DAPI-stained cells were photographed (20.12 ± 3.8 cells per photograph, 20 photographs per experimental condition; infected to uninfected cells ratio of 1:5) and the number of intracellular amastigotes was determined by manual count.
# [4] = system: HUVEC; assay: Cell viability by MTT reduction assay, HUVEC; assay type: cell-based; settings: Homo sapiens, 24 hours incubation, mean ± SD, n = 3, read-out: IC50, cellular viability, HUVEC
# Method: HUVECs (C-015-10C, Cascade Biologics, Life Technologies, USA) are primary human umbilical vein endothelial cells that are pooled from multiple donors. Cells were cultured in medium 200 (Cascade Biologics, USA) that had been supplemented with low serum growth supplement (LSGS, Cascade Biologics).
# as §1
# [5] = system: EA.hy926 cells; assay: Cell viability by MTT reduction assay, EA.hy926 cells; assay type: cell-based; settings: Homo sapiens, EA.hy 926, 24 hours incubation, mean ± SD, n = 3, read-out: IC50, cellular viability, EA.hy926 cells
# Method: EA.hy926 cells (ATCC CRL2922) are a human umbilical vein cell line established by fusing primary human umbilical vein cells with a thioguanine-resistant clone of A549 by exposure to polyethylene glycol (PEG). Hybrid clones were selected in HAT medium and screened for factor VIII-related antigen. The cell line was cultured following reported conditions. Cells were cultured on Iscove's Modified Dulbecco's Medium (IMDM, Biological Industries, Israel) supplemented with 10% v/v FBS, 100 U/mL penicillin, and […] streptomycin at 37°C and 5% CO2.
# as §1
# [6] = system: NF-κB p65 in T. cruzi-infected EA.hy926 cells; assay: Nuclear p65 localization by confocal microscopy; assay type: cell-based, human; settings: 5 μM simvastatin or 20 μM benznidazole before T. cruzi 1 hour
# Method: 2x10^4 EA.hy926 cells were seeded in Lab-Tek II Chamber Slides^TM for 12 hours. Cells were fixed in 3.7% formaldehyde–0.1 M phosphate buffer (pH 7.3) for 10 min. They were then washed with cytoskeletal buffer followed by permeabilization for 5 min with Triton-X100 0.5%. Cells were blocked with 3% bovine serum albumin for 1 hour. […] The samples were washed with PBS and incubated with anti-rabbit IgG conjugated with fluorescein (1:100) from Sigma-Aldrich for 1 hour. Finally, nuclei were stained with DAPI for 5 minutes and mounted in Dako fluorescence mounting media. The cells were photographed and ten pictures per well were obtained; images were analyzed using ImageJ software (ImageJ 1.47v).
SMILES,"Response of the IKK-IκB system (p-IKK, p-IκB) [1]",IC50 [2] [µM],Intracellular T. cruzi (amastigote) load [3],IC50 [4] [µM],IC50 [5] [µM],Nuclear p65 localization [6]
CCC(C)(C)C(=O)O[C@H]1C[C@@H](C)C=C2C=C[C@H](C)[C@H](CC[C@@H]3C[C@@H](O)CC(=O)O3)[C@H]21 [Simvastatin],significantly decreased the response of the Ikk-IkB system,68 ± 1.11,not affected,84.4 ± 1.56,65.4 ± 1.02,
O=C(Cn1ccnc1[N+](=O)[O-])NCc1ccccc1 [Benznidazole],significantly decreased the response of the Ikk-IkB system,< 100,not affected,< 100,< 100,decreased nuclear p65 localization
